From the supplement of paper PMC11061612

Legend:
[1] = compound: CC(=O)c1c(C)c2cnc(Nc3ccc(N4CCNCC4)cn3)nc2n(C2CCCC2)c1=O [Palbociclib]; conditions: max 10 µM
Outline: (§1)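 After 24 hours at 37°C and 5% CO2 in 1536-well plates holding 7.5 μl of DMEM/F12 or RPMI with 10% FBS, cancer cell lines were dosed for 72 hours, with final DMSO typically 0.2%. Viability came from CellTiter-Glo 2.0 luminescence, scaled between the means of blank wells and DMSO wells. A non-linear mixed effects model fitted a two-parameter logistic curve to each dose response to give the single-agent IC50.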

[2] = compound: CC(C)n1c(=O)n(C)c2cnc3cc(F)c(-c4ccc(OCCCN5CCCCC5)nc4)cc3c21 [AZD1390]; conditions: max 0.3 µM
Outline: as §1

[3] = compound: C1CC(C1)(C(=O)[O-])C(=O)[O-].N.N.[Pt+2] [Carboplatin]; conditions: max 10 µM
Outline: as §1

[4] = compound: C[C@@H](Nc1cc(F)cc(F)c1)c1cc(C(=O)N(C)C)cc2c(=O)cc(N3CCOCC3)oc12 [AZD8186]; conditions: max 10 µM
Outline: as §1

[5] = compound: Cc1cc2ncnn2cc1Nc1ncc2c(n1)n(C1CCOCC1)c(=O)n2C [AZD7648]; conditions: max 10 µM
Outline: as §1

[6] = compound: COc1cc(Nc2ncc3c(n2)-c2ccc(Cl)cc2C(c2c(F)cccc2OC)=NC3)ccc1C(=O)O [Alisertib]; conditions: max 10 µM
Outline: as §1

[7] = compound: CC1(C)CCC(CN2CCN(c3ccc(C(=O)NS(=O)(=O)c4ccc(NCC5CCOCC5)c([N+](=O)[O-])c4)c(Oc4cnc5[nH]ccc5c4)c3)CC2)=C(c2ccc(Cl)cc2)C1 [Venetoclax]; conditions: max 1 µM
Outline: as §1

[8] = compound: CC1=C(C(=CC=C1)Cl)NC(=O)C2=CN=C(S2)NC3=CC(=NC(=N3)C)N4CCN(CC4)CCO [Dasatinib]; conditions: max 2 µM
Outline: as §1

[9] = compound: C=CCn1c(=O)c2cnc(Nc3ccc(N4CCN(C)CC4)cc3)nc2n1-c1cccc(C(C)(C)O)n1 [AZD1775]
Outline: as §1

[10] = compound: C[C@@H](Oc1cc(-c2cnn(C3CCNCC3)c2)cnc1N)c1c(Cl)ccc(F)c1Cl [Crizotinib]; conditions: max 10 µM
Outline: as §1

[11] = compound: O=c1[nH]cc(F)c(=O)[nH]1 [5-Fluorouracil]; conditions: max 20 µM
Outline: as §1

[12] = compound: CC(=O)Nc1cccc(-n2c(=O)n(C3CC3)c(=O)c3c(Nc4ccc(I)cc4F)n(C)c(=O)c(C)c32)c1 [Trametinib]; conditions: max 1 µM
Outline: as §1

[13] = compound: CN(C)CCCOc1ccc(-c2ccc3ncc4c(c3c2)n(C2CCOCC2)c(=O)n4C)cn1 [AZD0156]
Outline: as §1

[14] = compound: CCc1c2c(nc3ccc(O)cc13)-c1cc3c(c(=O)n1C2)COC(=O)[C@]3(O)CC [SN-38]; conditions: max 0.3 µM
Outline: as §1

[15] = compound: NC1(c2ccc(-c3nc4ccn5c(=O)[nH]nc5c4cc3-c3ccccc3)cc2)CCC1 [MK-2206]; conditions: max 10 µM
Outline: as §1

[16] = compound: CCN(CCO)CCCOc1ccc2c(Nc3cc(CC(=O)Nc4cccc(F)c4)[nH]n3)ncnc2c1 [AZD2811]; conditions: max 1 µM
Outline: as §1

[17] = compound: C[C@@H](c1ccc2nccn2c1)n1nnc2ncc(-c3cnn(C)c3)nc21 [Savolitinib]; conditions: max 1 µM
Outline: as §1

[18] = compound: Cc1c2c(nn1C)CSCc1cc(n(C)n1)CSc1cc(c3ccccc3c1)OCCCc1c(C(=O)O)n(C)c3c-2c(Cl)ccc13 [AZD5991]; conditions: max 1 µM
Outline: as §1

[19] = compound: O=C(Nc1ccc2[nH]nc(-c3ccncc3)c2c1)[C@@H]1CCN(CC(=O)N2CCN(c3ccc(-c4ncccn4)cc3)CC2)C1; conditions: max 5 µM
Outline: as §1

[20] = compound: COc1cc2ncnc(Nc3ccc(F)c(Cl)c3)c2cc1OCCCN1CCOCC1 [Gefitinib]; conditions: max 10 µM
Outline: as §1

[21] = compound: COc1cccc(OCCCN)c1-c1cc(Nc2cnc(C#N)cn2)n[nH]1 [Prexasertib]; conditions: max 1 µM
Outline: as §1

[22] = compound: COc1cc([C@@H]2c3cc4c(cc3[C@@H](O[C@@H]3O[C@@H]5CO[C@@H](C)O[C@H]5[C@H](O)[C@H]3O)[C@H]3COC(=O)[C@H]23)OCO4)cc(OC)c1O [Etoposide]; conditions: max 10 µM
Outline: as §1

[23] = compound: CC(=O)O[C@H]1C(=O)[C@@]2(C)[C@H]([C@H](OC(=O)c3ccccc3)[C@]3(O)C[C@H](OC(=O)[C@H](O)[C@@H](NC(=O)c4ccccc4)c4ccccc4)C(C)=C1C3(C)C)[C@]1(OC(C)=O)CO[C@@H]1C[C@@H]2O [Paclitaxel]; conditions: max 3 µM
Outline: as §1

[24] = compound: COc1nnc2ccc(N3CCC(c4ccc(OCCN5CCN(C)C(=O)[C@H]5C)cc4)CC3)nn12 [AZD5153]; conditions: max 1 µM
Outline: as §1

[25] = compound: O=C(c1cc(Cc2n[nH]c(=O)c3ccccc23)ccc1F)N1CCN(C(=O)C2CC2)CC1 [Olaparib]; conditions: max 10 µM
Outline: as §1

[26] = compound: CS(=O)(=O)CCNCc1ccc(-c2ccc3ncnc(Nc4ccc(OCc5cccc(F)c5)c(Cl)c4)c3c2)o1 [Lapatinib]; conditions: max 10 µM
Outline: as §1

[27] = compound: Cn1cnc2c(F)c(Nc3ccc(Br)cc3Cl)c(C(=O)NOCCO)cc21 [Selumetinib]; conditions: max 10 µM
Outline: as §1

[28] = compound: C[C@@H]1COCCN1C2=NC(=NC(=C2)C3(CC3)[S@](=N)(=O)C)C4=C5C=CNC5=NC=C4 [AZD6738]; conditions: max 10 µM
Outline: as §1

[29] = compound: Cc1nc(-c2cn3c(n2)-c2ccc(-c4cnn(C(C)(C)C(N)=O)c4)cc2OCC3)n(C(C)C)n1 [Taselisib]; conditions: max 10 µM
Outline: as §1

[30] = compound: C1CN(CCC1(C(=O)N[C@@H](CCO)C2=CC=C(C=C2)Cl)N)C3=NC=NC4=C3C=CN4 [AZD5363]; conditions: max 10 µM
Outline: as §1

[31] = compound: CN(CC[C@H](CSC1=CC=CC=C1)NC2=C(C=C(C=C2)S(=O)(=O)NC(=O)C3=CC=C(C=C3)N4CCC(CC4)[C@H](C5=CC=CC=C5C6=CC=C(C=C6)Cl)O)S(=O)(=O)C(F)(F)F)CCO [AZD4320]; conditions: max 1 µM
Outline: as §1

[32] = compound: N#Cc1cnc(Nc2cc(NC[C@H]3CNCCO3)c(C(F)(F)F)cn2)cn1 [SRA737]; conditions: max 10 µM
Outline: as §1

[33] = compound: Nc1ccn([C@@H]2O[C@H](CO)[C@@H](O)C2(F)F)c(=O)n1 [Gemcitabine]; conditions: max 0.3 µM
Outline: as §1

[34] = compound: COc1cccc2c1C(=O)c1c(O)c3c(c(O)c1C2=O)C[C@@](O)(C(=O)CO)C[C@@H]3O[C@H]1C[C@H](N)[C@H](O)[C@H](C)O1 [Doxorubicin]; conditions: max 1 µM
Outline: as §1

[35] = compound: CC1=CN2[C@@H](C1)C=NC3=CC(=C(C=C3C2=O)OC)OCCCCCOC4=C(C=C5C(=C4)N=C[C@@H]6CC(=CN6C5=O)C)OC [SG3199]; conditions: max 0.001 µM
Outline: as §1

Row | Cell Line | IC50, cell viability 72 h [1] [µM] | IC50, cell viability 72 h [2] [µM] | IC50, cell viability 72 h [3] [µM] | IC50, cell viability 72 h [4] [µM] | IC50, cell viability 72 h [5] [µM] | IC50, cell viability 72 h [6] [µM] | IC50, cell viability 72 h [7] [µM] | IC50, cell viability 72 h [8] [µM] | IC50, cell viability 72 h ([9]; max 3 µM) [µM] | IC50, cell viability 72 h [10] [µM] | IC50, cell viability 72 h [11] [µM] | IC50, cell viability 72 h [12] [µM] | IC50, cell viability 72 h ([13]; max 3 µM) [µM] | IC50, cell viability 72 h [14] [µM] | IC50, cell viability 72 h [15] [µM] | IC50, cell viability 72 h [16] [µM] | IC50, cell viability 72 h [17] [µM] | IC50, cell viability 72 h [18] [µM] | IC50, cell viability 72 h [19] [µM] | IC50, cell viability 72 h [20] [µM] | IC50, cell viability 72 h [21] [µM] | IC50, cell viability 72 h [22] [µM] | IC50, cell viability 72 h [23] [µM] | IC50, cell viability 72 h [24] [µM] | IC50, cell viability 72 h [25] [µM] | IC50, cell viability 72 h [26] [µM] | IC50, cell viability 72 h [27] [µM] | IC50, cell viability 72 h [28] [µM] | IC50, cell viability 72 h [29] [µM] | IC50, cell viability 72 h [30] [µM] | IC50, cell viability 72 h [31] [µM] | IC50, cell viability 72 h [32] [µM] | IC50, cell viability 72 h [33] [µM] | IC50, cell viability 72 h [34] [µM] | IC50, cell viability 72 h [35] [µM] | IC50, cell viability 72 h ([9]; max 1 µM) [µM] | IC50, cell viability 72 h ([13]; max 1 µM) [µM]
1 | ME-180 (Cervical Carcinoma) | > 10 | > 0.3 | > 10 | > 10 | > 10 | 9.54 | > 1 | 1.24 | 1.45 | > 10 | > 20 | > 1 | > 3 | 0.0158 | > 10 | > 1 | > 1 | > 1 | > 5 | > 10 | > 1 | 3.73 | 0.141 | > 1 | > 10 | > 10 | > 10 | > 10 | 0.734 | 2.13 | > 1 | > 10 | 0.13 | > 1 | > 0.001 |  | 
2 | ML-2 (Acute Myeloid Leukemia) | 2.41 | > 0.3 | > 10 | > 10 | > 10 | 0.66 | 0.118 | > 2 | 0.243 | 1.95 | 1.55 | 0.0206 | > 3 | 0.00488 | > 10 | 0.0209 | > 1 | 0.0626 | 0.29 | > 10 | 0.00433 | 0.342 | 0.00585 | 0.116 | 8.05 | > 10 | 0.381 | 1.78 | 1.53 | 5.95 | 0.0275 | 0.995 | 0.0136 | 0.0703 | > 0.001 |  | 
3 | MOG-G-UVW (Low Grade Glioma) | > 10 | > 0.3 | > 10 | 9.25 | > 10 | 0.562 | > 1 | > 2 | 0.582 | 4.01 | > 20 | 0.148 | > 3 | 0.0117 | > 10 | 0.344 | > 1 | > 1 | > 5 | > 10 | 0.0265 | 1.6 | 0.003 | 0.34 | > 10 | > 10 | > 10 | 5.12 | 3.69 | > 10 | > 1 | > 10 | 0.0273 | 0.156 | > 0.001 |  | 
4 | MOLT-4 (T-Lymphoblastic Leukemia) | 7.92 | > 0.3 | > 10 | > 10 | > 10 | 0.0376 | > 1 | > 2 | 0.428 | 2.11 | 12.8 | > 1 | > 3 | 0.00299 | 6.71 | 0.0311 | > 1 | > 1 | > 5 | > 10 | 0.0132 | 0.123 | 0.0066 | > 1 | > 10 | > 10 | > 10 | 1.69 | 5.93 | 4.18 | 0.0931 | 2.31 | 0.0583 | 0.057 | > 0.001 |  | 
5 | MV-4-11 (Acute Myeloid Leukemia) | 1 | > 0.3 | > 10 | > 10 | > 10 | 0.0355 | 0.00799 | > 2 |  | 1.88 | 0.939 | 0.0703 |  | 0.00299 | 7.87 | 0.0206 | > 1 | 0.0059 | 1.35 | 4.16 | 0.0171 | 0.149 | 0.00397 | 0.0242 | > 10 | > 10 | 3.35 | 0.994 | 7.86 | 4.43 | 0.00174 | 1.29 | 0.00343 | 0.0331 | > 0.001 | 0.503 | > 1
